Read-outs that look alike come from different tables or passages of the source.
Assays:
mouse RORγ = biological target: T1, mouse RORγ (Mus musculus, UniProt P51450); experiment: In vitro assay of inhibitory effect against RORγ transcriptional activity (GAL4-mRORγ LBD luciferase reporter gene assay in CHO cells); type: cell-based; conditions: for mRORγ luciferase activity, %-of-control: value in parentheses beside the > EC50 bound, vehicle-control 0.2% DMSO alone = 100%
T1 construct: mouse RORγ, from Ile251 to Lys516; expressed in transfected cells; host or cells: CHO cells (Chinese hamster ovary), transient co-transfection with pG5-Luc
T1 sequence (P51450 251-516): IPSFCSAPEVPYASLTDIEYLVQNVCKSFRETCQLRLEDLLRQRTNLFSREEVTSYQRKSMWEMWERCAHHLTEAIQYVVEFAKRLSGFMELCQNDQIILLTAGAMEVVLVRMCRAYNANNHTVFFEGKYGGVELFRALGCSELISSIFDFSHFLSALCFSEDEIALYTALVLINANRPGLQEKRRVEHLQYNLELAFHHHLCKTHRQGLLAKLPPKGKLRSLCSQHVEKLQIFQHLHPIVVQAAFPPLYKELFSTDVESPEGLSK
Summary of the method: (§1)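 Transcriptional activity of human or mouse RORγ LBD, tethered to the GAL4 DNA-binding domain, is monitored by a GAL4-dependent firefly luciferase reporter in transiently transfected CHO cells. Test articles are incubated for 2 days; values are %-of-control or fitted EC50.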

human RORγ = biological target: T2, human RORγ (Homo sapiens, UniProt P51449); experiment: In vitro assay of inhibitory effect against RORγ transcriptional activity (GAL4-hRORγ LBD luciferase reporter gene assay in CHO cells); type: cell-based; conditions: for hRORγ luciferase activity, %-of-control: value in parentheses beside the > EC50 bound, vehicle-control 0.2% DMSO alone = 100%
T2 construct: human RORγ, from Ser253 to Lys518; expressed in transfected cells; host or cells: CHO cells (Chinese hamster ovary), transient co-transfection with pG5-Luc
T2 sequence (P51449 253-518): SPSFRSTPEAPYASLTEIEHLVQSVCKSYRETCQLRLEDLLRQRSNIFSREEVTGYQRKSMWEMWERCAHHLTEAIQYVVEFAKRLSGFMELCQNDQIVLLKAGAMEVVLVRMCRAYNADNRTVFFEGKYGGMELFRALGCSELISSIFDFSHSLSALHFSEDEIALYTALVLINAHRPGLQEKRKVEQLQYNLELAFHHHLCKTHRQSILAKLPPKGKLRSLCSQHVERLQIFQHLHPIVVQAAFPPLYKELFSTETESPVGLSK
Summary of the method: as §1

[1] = GAL4-mRORγ LBD / pG5-Luc in CHO cells, 2 days incubation
[2] = GAL4-hRORγ LBD / pG5-Luc in CHO cells, 2 days incubation
[3] = GAL4-mRORγ LBD luciferase reporter, CHO cells, read-out: LUC EC50 mRORγ
[4] = GAL4-hRORγ LBD luciferase reporter, CHO cells, read-out: LUC EC50 hRORγ

Row | SMILES | EC50 (mouse RORγ; [1]) | EC50 (human RORγ; [2]) | EC50 (mouse RORγ; [3]) | EC50 (human RORγ; [4]) | mRORγ luciferase activity, %-of-control (mouse RORγ) | hRORγ luciferase activity, %-of-control (human RORγ)
1 | CC(C)(C)C#Cc1ccc(C2NC(=O)N(CCCC(=O)O)C=C2C(C)(C)C)cc1Cl (racemic) [Example 187] | 63 nM | 172 nM |  |  |  | 
2 | COC[C@H]1C[C@@H](C2=CN(CCC(=O)O)C(=O)N[C@@]2(C)c2ccc(CCC(C)(C)C)c(Cl)c2)C1 [Example 206] |  |  | 117 nM | 81 nM |  | 
3 | CC(C)(C)CCc1ccc([C@]2(C)NC(=O)N(CCCC(=O)O)C=C2C2CCCCC2)cc1Cl [Example 32] | 46 nM | 26 nM |  |  |  | 
4 | CC(C)C1=CN([C@H]2CC[C@H](C(=O)O)CC2)C(=O)N[C@@]1(C)c1ccc(CCC(C)(C)C)c(Cl)c1 [Example 79] | 18 nM | 16 nM |  |  |  | 
5 | COCC(C)C1=CN(C23CCC(C(=O)O)(C2)C3)C(=O)N[C@@]1(C)c1ccc(CCC(C)(C)C)c(Cl)c1 (single isomer, unassigned) [Example 352] |  |  | 51 nM | 63 nM |  | 
6 | CC(C)C1=CN(CCC(=O)O)C(=O)N[C@@]1(C)c1ccc(C2=CCC(F)(F)CC2)c(Cl)c1 [Example 327] |  |  | 40 nM | 58 nM |  | 
7 | CC(C)COc1c(F)cc([C@]2(C)NC(=O)N(CCC(=O)O)C=C2C(C)C)cc1Cl [Example 194] |  |  | 28 nM | 58 nM |  | 
8 | CC(C)C1=CN(CCC(=O)O)C(=O)N[C@@]1(C)c1ccc([C@H]2C[C@@H](C(C)C)C2)c(Cl)c1 [Example 258, 3-{(S)-4-[3-Chloro-4-(3-isopropyl-cyclobutyl)-phenyl]-5-isopropyl-4-methyl-2-oxo-3,4-dihydro-2H-pyrimidin-1-yl}-propionic Acid] |  |  | 16 nM | 22 nM |  | 
9 | CC(C)CCOc1ccc([C@]2(C)NC(=O)N(C34CC(C(=O)O)(C3)C4)C=C2C2CC(F)(F)C2)cc1Cl [Example 349] |  |  | 45 nM | 63 nM |  | 
10 | CC(C)(C)COc1ccc(C2NC(=O)N(CCCC(=O)O)C=C2C(C)(C)C)cc1Cl (single isomer, unassigned) [Example 6] | > 8000 nM | > 8000 nM |  |  | (75%) | (76%)
11 | CC(C)(C)CCc1ccc([C@]2(C)NC(=O)N(C3CC(F)(F)C3)C=C2[C@H]2C[C@@H](C(=O)O)C2)cc1Cl [Example 229] |  |  | 18 nM | 9 nM |  | 
12 | CC(C)(C)CCc1ccc(C2NC(=O)N([C@H]3C[C@H](C(=O)O)C3)C=C2C(C)(C)C)cc1Cl (single isomer, unassigned) [Example 102] | > 8000 nM | > 8000 nM |  |  | (76%) | (76%)
13 | CC(C)C1=CN(c2ccc(C(=O)O)cc2F)C(=O)N[C@@]1(C)c1ccc(CCC(C)(C)C)c(Cl)c1 [Example 207] |  |  | 18 nM | 9 nM |  | 
14 | COCCC1=CN(c2ccc(C(=O)O)cc2)C(=O)N[C@@]1(C)c1ccc(CC2CCCCC2)c(Cl)c1 [Example 336] |  |  | 7 nM | 10 nM |  | 
15 | COCCN1C=C(c2ccc(C(=O)O)cc2)[C@](C)(c2ccc(CCC(C)(C)C)c(Cl)c2)NC1=O [Example 225] |  |  | 72 nM | 101 nM |  | 
16 | CC(C)(C)CCc1ccc([C@@]2(C)NC(=O)N([C@H]3C[C@H](C(=O)O)C3)C=C2C2CCOCC2)cc1Cl [Example 99] | 2890 nM | 1510 nM |  |  |  | 
17 | CC(C)(C)COc1ccc(C2NC(=O)NC=C2C(C)(C)CCC(=O)O)cc1Cl (racemic) [Example 7] | 110 nM | 152 nM |  |  |  | 
18 | CC(C)(C)CCc1ccc([C@]2(C)NC(=O)N(c3ccncc3)C=C2CCC(=O)O)cc1Cl [Example 231] |  |  | 458 nM | 692 nM |  | 

Row | SMILES | EC50 (mouse RORγ; [1]) | EC50 (human RORγ; [2]) | EC50 (mouse RORγ; [3]) | EC50 (human RORγ; [4]) | mRORγ luciferase activity, %-of-control (mouse RORγ) | hRORγ luciferase activity, %-of-control (human RORγ)
19 | CC(C)C1=CN(CCC(=O)O)C(=O)N[C@@]1(C)c1ccc(CCc2ccccc2)c(Cl)c1 [Example 144] | 37 nM | > 512 nM |  |  |  | (60%)
20 | CC(C)C1=CN(CCC(=O)O)C(=O)N[C@]1(C)c1ccc(C2CCC(C)(C)CC2)c(Cl)c1 [Example 117] | > 8000 nM | > 3200 nM |  |  | (76%) | (106%)
21 | CC(C)C1=CN(CCC(=O)O)C(=O)N[C@]1(C)c1ccc(CCC(C)(C)C)c(Cl)c1 [Example 86, 3-{(R)-4-[3-Chloro-4-(3,3-dimethyl-butyl)-phenyl]-5-isopropyl-4-methyl-2-oxo-3,4-dihydro-2H-pyrimidin-1-yl}-propionic Acid] | > 8000 nM | 6770 nM |  |  | (51%) | 
22 | COCCN1C=C(c2cncc(C(=O)O)c2)[C@](C)(c2ccc(CCC(C)(C)C)c(Cl)c2)NC1=O [Example 275] |  |  | 1210 nM | 542 nM |  | 
23 | CC(C)(C)COc1ccc([C@]2(C)NC(=O)N(c3ccc(C(=O)O)cc3)C=C2C2CC(F)(F)C2)cc1Cl [Example 353] |  |  | 45 nM | 59 nM |  | 
24 | CC(C)C1=CN(CCCC(=O)O)C(=O)N[C@@]1(C)c1ccc(CCC(C)(C)C)c(Cl)c1 [Example 15] | 12 nM | 12 nM |  |  |  | 
25 | CC(C)C1=CN(CCC(=O)O)C(=O)N[C@]1(C)c1ccc(C2CCC2)c(Cl)c1 [Example 152] | > 20000 nM | > 20000 nM |  |  | (57%) | (56%)
26 | CC(C)[C@H]1C[C@@H](c2ccc([C@]3(C)NC(=O)N([C@H]4C[C@H](C(=O)O)C4)C=C3C3CC(F)(F)C3)cc2Cl)C1 [Example 329] |  |  | 50 nM | 74 nM |  | 
27 | CC(C)C1=CN(CCC(=O)O)C(=O)N[C@@]1(C)c1ccc(C2CCC(C)(C)CC2)c(Cl)c1 [Example 118] | 17 nM | 19 nM |  |  |  | 
28 | CC(C)COc1ccc([C@]2(C)NC(=O)N(CCC(=O)O)C=C2C(C)C)cc1Cl [Example 183] | 78 nM | 118 nM |  |  |  | 
29 | CC(C)C1=CN(CCCC(C)(C)C(=O)O)C(=O)N[C@@]1(C)c1ccc(CCC(C)(C)C)c(Cl)c1 [Example 75] | 316 nM | 296 nM |  |  |  | 
30 | CC(C)C1=CN(CCCC(=O)O)C(=O)NC1(C)c1ccc(CCC(C)(C)C)cc1 (racemic) [Example 26] | 217 nM | 364 nM |  |  |  | 
31 | CC(C)C1=CN(c2cc(C(=O)O)nn2C)C(=O)N[C@@]1(C)c1ccc(CCC(C)(C)C)c(Cl)c1 [Example 297] |  |  | 61 nM | 44 nM |  | 
32 | CC(C)C1=CN(C2(CC(=O)O)CC2)C(=O)N[C@@]1(C)c1ccc(CCC(C)(C)C)c(Cl)c1 [Example 228] |  |  | 32 nM | 32 nM |  | 
33 | CC(C)(C)CCc1ccc(C2NC(=O)N(CCCC(=O)O)C=C2C(C)(C)C)cc1Cl (racemic) [Example 8] | 22 nM | 21 nM |  |  |  | 
34 | CC(C)C1=CN(CCC(=O)O)C(=O)N[C@@]1(C)c1ccc(CC2CCOCC2)c(Cl)c1 [Example 290] |  |  | 259 nM | 463 nM |  | 
35 | CC(C)C1=CN(CCC(=O)O)C(=O)N[C@]1(C)c1ccc(C2=CCC(C)(C)CC2)c(Cl)c1 [Example 115, 3-{(R)-4-[3-Chloro-4-(4,4-dimethyl-cyclohex-1-enyl)-phenyl]-5-isopropyl-4-methyl-2-oxo-3,4-dihydro-2H-pyrimidin-1-yl}-propionic Acid] | > 8000 nM | > 8000 nM |  |  | (100%) | (110%)
36 | CC(C)C1=CN(C[C@H]2C[C@H](C(=O)O)C2)C(=O)NC1(C)c1ccc(CCC(C)(C)C)c(Cl)c1 (mixture of isomers) [Example 80] | 17 nM | 16 nM |  |  |  | 

— patent US10196363B2, “Dihydropyrimidin-2-one compounds and medical use thereof” (JAPAN TOBACCO INC., priority 2014, dated 2019)
